Results from patent publication US20240124427A1, “HYDROXYHETEROCYCLOALKANE-CARBAMOYL DERIVATIVES” (Idorsia Pharmaceuticals Ltd, priority 2021, published 2024).
Like-named read-outs stand apart in the source and are kept apart here.

What was measured:
human Gal-1 (hGal-1) = human Gal-1 (hGal-1) (Homo sapiens, UniProt P09382); assay type: binding
human Gal-3 (hGal-3) = human Gal-3 (hGal-3) (Homo sapiens (Human), UniProt P17931); experiment: Competitive binding assay: biotinylated hGal-3 binding to microplate-adsorbed asialofetuin (ASF)
Chain of human Gal-3 (hGal-3) (P17931 whole entry): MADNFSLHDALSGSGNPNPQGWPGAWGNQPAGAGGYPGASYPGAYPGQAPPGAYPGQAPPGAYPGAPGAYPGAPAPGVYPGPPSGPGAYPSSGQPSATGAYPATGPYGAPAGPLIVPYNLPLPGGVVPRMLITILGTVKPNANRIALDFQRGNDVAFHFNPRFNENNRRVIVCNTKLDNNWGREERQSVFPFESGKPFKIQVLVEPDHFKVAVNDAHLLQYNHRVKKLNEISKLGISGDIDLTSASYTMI
Procedure, shortened: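 Spectrophotometric read-out using streptavidin-peroxidase and ABTS quantifies how much biotin-hGal-3 remains bound to microplate asialofetuin after 3 h at 4 °C with compound present. Values are means of repeated IC50 determinations.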

[1] = Activity on hGal-3, mean values of several measurements, mixture of diastereomers measured where not separated

Chain of human Gal-1 (hGal-1) (P09382 2-135 limits assumed): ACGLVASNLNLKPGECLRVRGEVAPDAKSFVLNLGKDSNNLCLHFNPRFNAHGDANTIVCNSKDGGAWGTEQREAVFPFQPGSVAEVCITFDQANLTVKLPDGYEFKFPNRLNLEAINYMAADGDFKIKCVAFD

Structure (SMILES) | IC50 (human Gal-3 (hGal-3); [1]) | IC50 (human Gal-1 (hGal-1)) | IC50 (human Gal-3 (hGal-3))
CO[C@@H]1[C@@H](n2cc(-c3cc(F)c(C)c(F)c3)nn2)[C@@H](O)[C@@H](CO)O[C@H]1C(=O)N(c1cc(C)cc(Br)c1)[C@H]1CNC[C@@H]1O [Example 70] |  | 1800 nM | 56 nM
CO[C@@H]1[C@@H](n2cc(-c3cc(F)c(F)c(F)c3)nn2)[C@@H](O)[C@@H](CO)O[C@H]1C(=O)N(c1cc(Br)cc(Br)c1)[C@H]1CN(C(C)=O)C[C@@H]1O [Example 84] |  | 1210 nM | 70 nM
CO[C@@H]1[C@@H](n2cc(-c3cc(F)c(C)c(F)c3)nn2)[C@@H](O)[C@@H](CO)O[C@H]1C(=O)N(c1cc(Cl)cc(Cl)c1)[C@@H]1CN(C(C)=O)C[C@H]1O [Example 85] |  | 13400 nM | 327 nM
CO[C@@H]1[C@@H](n2cc(-c3cc(F)c(Cl)c(F)c3)nn2)[C@@H](O)[C@@H](CO)O[C@H]1C(=O)N(c1cc(Cl)cc(Cl)c1)[C@@H]1CN(C(C)=O)C[C@H]1O [Example 86] |  | 1780 nM | 64 nM
CO[C@@H]1[C@@H](n2cc(-c3cc(F)c(Cl)c(F)c3)nn2)[C@@H](O)[C@@H](CO)O[C@H]1C(=O)N(c1cc(Br)cc(Br)c1)[C@@H]1CN(C(C)=O)C[C@H]1O [Example 87] |  | 1860 nM | 36 nM
CO[C@@H]1[C@@H](n2cc(-c3cc(F)c(F)c(F)c3)nn2)[C@@H](O)[C@@H](CO)O[C@H]1C(=O)N(c1cc(C)cc(Br)c1)[C@H]1CN(C)C[C@@H]1O [Example 96, (2R,3R,4S,5R,6R)-N-(3-bromo-5-methylphenyl)-5-hydroxy-N-((3S,4S)-4-hydroxy-1-methylpyrrolidin-3-yl)-6-(hydroxymethyl)-3-methoxy-4-(4-(3,4,5-trifluorophenyl)-1H-1,2,3-triazol-1-yl)tetrahydro-2H-pyran-2-carboxamide] | 51 nM |  | 
CCN1C[C@H](O)[C@@H](N(C(=O)[C@@H]2O[C@H](CO)[C@H](O)[C@H](n3cc(-c4cc(F)c(F)c(F)c4)nn3)[C@H]2OC)c2cc(C)cc(Br)c2)C1 [Example 97, (2R,3R,4S,5R,6R)-N-(3-bromo-5-methylphenyl)-N-((3S,4S)-1-ethyl-4-hydroxypyrrolidin-3-yl)-5-hydroxy-6-(hydroxymethyl)-3-methoxy-4-(4-(3,4,5-trifluorophenyl)-1H-1,2,3-triazol-1-yl)tetrahydro-2H-pyran-2-carboxamide] | 24 nM |  | 
CO[C@@H]1[C@@H](n2cc(-c3cc(F)c(F)c(F)c3)nn2)[C@@H](O)[C@@H](CO)O[C@H]1C(=O)N(c1cc(C)cc(Br)c1)[C@H]1CN(S(C)(=O)=O)C[C@@H]1O [Example 98, (2R,3R,4S,5R,6R)-N-(3-bromo-5-methylphenyl)-5-hydroxy-N-((3S,4S)-4-hydroxy-1-(methylsulfonyl)pyrrolidin-3-yl)-6-(hydroxymethyl)-3-methoxy-4-(4-(3,4,5-trifluorophenyl)-1H-1,2,3-triazol-1-yl)tetrahydro-2H-pyran-2-carboxamide] | 29 nM |  | 
CO[C@@H]1[C@@H](n2cc(-c3cc(F)c(F)c(F)c3)nn2)[C@@H](O)[C@@H](CO)O[C@H]1C(=O)N(c1cc(Cl)cc(Cl)c1)[C@H]1CCOC[C@@H]1O [Example 99, (2R,3R,4S,5R,6R)-N-(3,5-dichlorophenyl)-5-hydroxy-6-(hydroxymethyl)-N-((3R,4S)-3-hydroxytetrahydro-2H-pyran-4-yl)-3-methoxy-4-(4-(3,4,5-trifluorophenyl)-1H-1,2,3-triazol-1-yl)tetrahydro-2H-pyran-2-carboxamide] | 16 nM |  | 
CO[C@@H]1[C@@H](n2cc(-c3cc(F)c(F)c(F)c3)nn2)[C@@H](O)[C@@H](CO)O[C@H]1C(=O)N(c1cc(Cl)cc(C#N)c1)[C@H]1CCOC[C@@H]1O [Example 100, (2R,3R,4S,5R,6R)-N-(3-chloro-5-cyanophenyl)-5-hydroxy-6-(hydroxymethyl)-N-((3R,4S)-3-hydroxytetrahydro-2H-pyran-4-yl)-3-methoxy-4-(4-(3,4,5-trifluorophenyl)-1H-1,2,3-triazol-1-yl)tetrahydro-2H-pyran-2-carboxamide] | 16 nM |  | 
CO[C@@H]1[C@@H](n2cc(-c3cc(F)c(F)c(F)c3)nn2)[C@@H](O)[C@@H](CO)O[C@H]1C(=O)N(c1cc(Br)cc(C#N)c1)[C@H]1CCOC[C@@H]1O [Example 101, (2R,3R,4S,5R,6R)-N-(3-bromo-5-cyanophenyl)-5-hydroxy-6-(hydroxymethyl)-N-((3R,4S)-3-hydroxytetrahydro-2H-pyran-4-yl)-3-methoxy-4-(4-(3,4,5-trifluorophenyl)-1H-1,2,3-triazol-1-yl)tetrahydro-2H-pyran-2-carboxamide] | 14 nM |  | 
CO[C@@H]1[C@@H](n2cc(-c3cc(F)c(F)c(F)c3)nn2)[C@@H](O)[C@@H](CO)O[C@H]1C(=O)N(c1cc(C)cc(Br)c1)[C@H]1CCOC[C@@H]1O [Example 102, (2R,3R,4S,5R,6R)-N-(3-bromo-5-methylphenyl)-5-hydroxy-6-(hydroxymethyl)-N-((3R,4S)-3-hydroxytetrahydro-2H-pyran-4-yl)-3-methoxy-4-(4-(3,4,5-trifluorophenyl)-1H-1,2,3-triazol-1-yl)tetrahydro-2H-pyran-2-carboxamide] | 14 nM |  | 
CO[C@@H]1[C@@H](n2cc(-c3cc(F)c(F)c(F)c3)nn2)[C@@H](O)[C@@H](CO)O[C@H]1C(=O)N(c1cc(Cl)cc(Cl)c1)[C@@H]1CCOC[C@H]1O [Example 103, (2R,3R,4S,5R,6R)-N-(3,5-dichlorophenyl)-5-hydroxy-6-(hydroxymethyl)-N-((3S,4R)-3-hydroxytetrahydro-2H-pyran-4-yl)-3-methoxy-4-(4-(3,4,5-trifluorophenyl)-1H-1,2,3-triazol-1-yl)tetrahydro-2H-pyran-2-carboxamide] | 299 nM |  | 
CO[C@@H]1[C@@H](n2cc(-c3cc(F)c(F)c(F)c3)nn2)[C@@H](O)[C@@H](CO)O[C@H]1C(=O)N(c1cc(C)cc(Br)c1)[C@@H]1CCOC[C@H]1O [Example 104, (2R,3R,4S,5R,6R)-N-(3-bromo-5-methylphenyl)-5-hydroxy-6-(hydroxymethyl)-N-((3S,4R)-3-hydroxytetrahydro-2H-pyran-4-yl)-3-methoxy-4-(4-(3,4,5-trifluorophenyl)-1H-1,2,3-triazol-1-yl)tetrahydro-2H-pyran-2-carboxamide] | 256 nM |  | 

More lines, main results first:

IC50 (human Gal-3 (hGal-3); [1]) | Structure (SMILES) | IC50 (human Gal-1 (hGal-1)) | IC50 (human Gal-3 (hGal-3))
18 nM | CO[C@@H]1[C@@H](n2cc(-c3cc(F)c(F)c(F)c3)nn2)[C@@H](O)[C@@H](CO)O[C@H]1C(=O)N(c1cc(Cl)cc(Cl)c1)[C@H]1COCC[C@@H]1O [Example 105, (2R,3R,4S,5R,6R)-N-(3,5-dichlorophenyl)-5-hydroxy-6-(hydroxymethyl)-N-((3S,4S)-4-hydroxytetrahydro-2H-pyran-3-yl)-3-methoxy-4-(4-(3,4,5-trifluorophenyl)-1H-1,2,3-triazol-1-yl)tetrahydro-2H-pyran-2-carboxamide] |  | 
13 nM | CO[C@@H]1[C@@H](n2cc(-c3cc(F)c(F)c(F)c3)nn2)[C@@H](O)[C@@H](CO)O[C@H]1C(=O)N(c1cc(C)cc(Br)c1)[C@H]1COCC[C@@H]1O [Example 106, (2R,3R,4S,5R,6R)-N-(3-bromo-5-methylphenyl)-5-hydroxy-6-(hydroxymethyl)-N-((3S,4S)-4-hydroxytetrahydro-2H-pyran-3-yl)-3-methoxy-4-(4-(3,4,5-trifluorophenyl)-1H-1,2,3-triazol-1-yl)tetrahydro-2H-pyran-2-carboxamide] |  | 
217 nM | CO[C@@H]1[C@@H](n2cc(-c3cc(F)c(F)c(F)c3)nn2)[C@@H](O)[C@@H](CO)O[C@H]1C(=O)N(c1cc(Cl)cc(Cl)c1)[C@@H]1COCC[C@H]1O [Example 107, (2R,3R,4S,5R,6R)-N-(3,5-dichlorophenyl)-5-hydroxy-6-(hydroxymethyl)-N-((3R,4R)-4-hydroxytetrahydro-2H-pyran-3-yl)-3-methoxy-4-(4-(3,4,5-trifluorophenyl)-1H-1,2,3-triazol-1-yl)tetrahydro-2H-pyran-2-carboxamide] |  | 
315 nM | CO[C@@H]1[C@@H](n2cc(-c3cc(F)c(F)c(F)c3)nn2)[C@@H](O)[C@@H](CO)O[C@H]1C(=O)N(c1cc(C)cc(Br)c1)[C@@H]1COCC[C@H]1O [Example 108, (2R,3R,4S,5R,6R)-N-(3-bromo-5-methylphenyl)-5-hydroxy-6-(hydroxymethyl)-N-((3R,4R)-4-hydroxytetrahydro-2H-pyran-3-yl)-3-methoxy-4-(4-(3,4,5-trifluorophenyl)-1H-1,2,3-triazol-1-yl)tetrahydro-2H-pyran-2-carboxamide] |  | 
13 nM | CO[C@@H]1[C@@H](n2cc(-c3cc(F)c(F)c(F)c3)nn2)[C@@H](O)[C@@H](CO)O[C@H]1C(=O)N(c1cc(Cl)cc(Cl)c1)[C@H]1CNCC[C@@H]1O [Example 113, (2R,3R,4S,5R,6R)-N-(3,5-dichlorophenyl)-5-hydroxy-6-(hydroxymethyl)-N-((3S,4S)-4-hydroxypiperidin-3-yl)-3-methoxy-4-(4-(3,4,5-trifluorophenyl)-1H-1,2,3-triazol-1-yl)tetrahydro-2H-pyran-2-carboxamide] |  | 
9 nM | CO[C@@H]1[C@@H](n2cc(-c3cc(F)c(F)c(F)c3)nn2)[C@@H](O)[C@@H](CO)O[C@H]1C(=O)N(c1cc(C)cc(Br)c1)[C@H]1CNCC[C@@H]1O [Example 114, (2R,3R,4S,5R,6R)-N-(3-bromo-5-methylphenyl)-5-hydroxy-6-(hydroxymethyl)-N-((3S,4S)-4-hydroxypiperidin-3-yl)-3-methoxy-4-(4-(3,4,5-trifluorophenyl)-1H-1,2,3-triazol-1-yl)tetrahydro-2H-pyran-2-carboxamide] |  | 
196 nM | CO[C@@H]1[C@@H](n2cc(-c3cc(F)c(F)c(F)c3)nn2)[C@@H](O)[C@@H](CO)O[C@H]1C(=O)N(c1cc(C)cc(Br)c1)[C@@H]1CNCC[C@H]1O [Example 115, (2R,3R,4S,5R,6R)-N-(3-bromo-5-methylphenyl)-5-hydroxy-6-(hydroxymethyl)-N-((3R,4R)-4-hydroxypiperidin-3-yl)-3-methoxy-4-(4-(3,4,5-trifluorophenyl)-1H-1,2,3-triazol-1-yl)tetrahydro-2H-pyran-2-carboxamide] |  | 
